For 4 molecules, TGI results are on record in PubChem BioAssay (NCI).

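Method: 48-hour compound exposure of cells in 96-well plates, five concentrations, linear interpolation of endpoints. Definition used: TGI = concentration required for complete inhibition of growth.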 Where only a bound is given, the exact number is not on record here.

Among the test systems are NCI-H460 lung; MOLT-4 leukemia; HL-60(TB) leukemia; CCRF-CEM leukemia; MDA-MB-435; RXF 393 renal; UO-31 renal.
Holding throughout (experiment): NCI anticancer screen, dose series, 48 h

Take `CCN(CC)c1ccc2cc(C(N)=O)c(=Nc3ccc(F)cc3)oc2c1`: the TGI in the assay on NCI-H460 lung is over 100 µM; in the assay with MOLT-4 leukemia, over 100 µM; in the assay on HL-60(TB) leukemia, over 100 µM; in the assay with CCRF-CEM leukemia, over 100 µM; in the assay with MDA-MB-435, over 100 µM; in the assay with RXF 393 renal, 92 µM. The TGI with UO-31 renal is over 100 µM.

For `COC12C=CC(CC1)C(C)(C)C2OS(C)(=O)=O` (stereo not drawn), the TGI in the assay on NCI-H460 lung, with MOLT-4 leukemia, in the assay on HL-60(TB) leukemia, in the assay with CCRF-CEM leukemia, in the assay with MDA-MB-435 and in the assay with RXF 393 renal was over 100 µM in each case. For the same molecule, the TGI in the assay with UO-31 renal is over 100 µM.

With `CC(=O)OCC1OC(n2c(N)c(C#N)c(-c3cccc(Cl)c3)c(C#N)c2=S)C(OC(C)=O)C(OC(C)=O)C1OC(C)=O` (stereo not drawn), the TGI in the assay with NCI-H460 lung was over 100 µM; with MOLT-4 leukemia, 51.5 µM; in the assay on HL-60(TB) leukemia, 52 µM; in the assay with CCRF-CEM leukemia, over 100 µM; with MDA-MB-435 it was 50 µM; with RXF 393 renal it was 22 µM. Also, in the assay on UO-31 renal, the TGI is over 100 µM.

Consider `O=C(N[C@H]1CCC[C@H]1C(=O)Nc1ccc(C(F)(F)F)cc1)OCc1ccccc1`, for which the TGI with NCI-H460 lung, with MOLT-4 leukemia, in the assay with HL-60(TB) leukemia, with CCRF-CEM leukemia, in the assay on MDA-MB-435 and in the assay with RXF 393 renal was over 100 µM each time. For the same molecule, in the assay on UO-31 renal, the TGI is over 100 µM.
